The IC50 is the concentration that inhibits the measured activity by half.

Bounds are passed on as bounds.

Among the data in BindingDB's records for doi:10.1016/j.ejmech.2014.06.070 (The University of Newcastle, 2014) are IC50 values, retold here.

This assay is described as follows: Inhibition of Dynamin 1 in serum-starved human U2OS cells assessed as inhibition of clathrin-mediated […]-cojugated transferrin uptake pretreated for 30 mins by high-content imaging method.

As to `O=C1C=C(Nc2ccc(O)cc2)C(=O)C=C1Nc1ccc(O)cc1`, the IC50 is 36 µM.
Take `O=C1C=C(Nc2cccc(C(=O)O)c2)C(=O)C=C1Nc1cccc(C(=O)O)c1`: the half-inhibitory concentration (IC50) was > 300 µM.
The same measure for `O=C1C=C(Nc2ccc(C(=O)O)cc2)C(=O)C=C1Nc1ccc(C(=O)O)cc1`: 200 µM.
Turning to `O=C1C=C(NCc2ccccc2)C(=O)C=C1NCc1ccccc1`, the IC50 came to 120 µM.
Turning to `O=C1C=C(Nc2ccccc2C(=O)O)C(=O)C=C1Nc1ccccc1C(=O)O` [2,2'-(3,6-dioxocyclohexa-1,4-diene-1,4-diyl)bis(azanediyl)dibenzoic acid], the half-inhibitory concentration (IC50) is 162 µM.
